Laboratory results from patent publication US9926318B2, “Tetracyclic autotaxin inhibitors” (PharmAkea, Inc., priority 2013, dated 2018).
pIC50: −log10 of the molar value.

Target: human autotaxin (ATX) (Homo sapiens (Human), UniProt Q13822)
Assay: Human autotaxin assay (choline release from LPC, Hep3B conditioned media)
Type: biochemical
Settings: concentrated conditioned media from Hep3B cells, LPC substrate
Procedure: ATX activity is assayed in concentrated conditioned media from Hep3B human hepatocellular carcinoma cells by measuring the amount of choline released from the substrate, lysophosphatidylcholine (LPC) as it is cleaved to LPA. Conditioned media is collected from confluent Hep3B cells and concentrated 20-fold using Centriprep-30 filter devices (Millipore). […] 100 μl of a color mix containing 4.5 mM 4-aminoantipyrine, 2.7 mM N-ethyl-N-(2-hydroxy-3-sulfopropyl)-m-toluidine, 21 units/ml horseradish peroxidase and 3 units/ml choline oxidase in 50 mM Tris, pH 8, 4.5 mM MgCl2 is added and the incubation continued for 15 minutes at room temperature before reading the absorbance at 555 nm.

SMILES	pIC50
CC1(C)c2c(n(Cc3ccc(F)cc3)c3ccccc23)CN2C(=O)N(CCC(=O)O)C(=O)C21 (stereo not shown) [Compound A11, 3-(6-(4-fluorobenzyl)-11,11-dimethyl-1,3-dioxo-5,6,11,11a-tetrahydro-1H-imidazo[1′,5′:1,6]pyrido[3,4-b]indol-2(3H)-yl)propanoic acid]	> 6.30
O=C(O)CCN1C(=O)C2Cc3c(n(Cc4ccc(F)cc4)c4ncccc34)CN2C1=O (stereo not shown) [Compound C114, 3-{8-[(4-fluorophenyl)methyl]-12,14-dioxo-6.8.11.13-tetraazatetracyclo[7.7.0.02, 7.011,15]hexadeca-1(9),2(7),3,5-tetraen-13-yl}propionic acid]	> 6.30
O=C(O)CCN1C(=O)[C@@H]2Cc3c(n(Cc4ccc(Cl)nc4)c4ccccc34)CN2C1=O [Compound 1-84, (S)-3-(6-((6-chloropyridin-3-yl)methyl)-1,3-dioxo-5,6,11,11a-tetrahydro-1H-imidazo[1′,5′:1,6]pyrido[3,4-b]indol-2(3H)-yl)propanoic acid]	> 6.30
CC1(C)c2c(n(Cc3ccc(F)cc3)c3ncccc23)CN2C(=O)N(CCC(=O)O)C(=O)C21 (stereo not shown) [Compound C11, 3-{8-[(p-fluorophenyl)methyl]-16,16-dimethyl-12,14-dioxo-6.8.11.13-tetrazatetracyclo[7.7.0.02,7.011,15]hexadeca-1(9),2(7),3,5-tetraene-13-yl}propionic acid]	> 6.30
O=C(O)CCN1C(=O)[C@@H]2Cc3c(n(Cc4ccc(Cl)cc4F)c4ccccc34)CN2C1=O [Compound 1-133, (S)-3-(6-(4-chloro-2-fluorobenzyl)-1,3-dioxo-11,11a-dihydro-1H-imidazo[1′,5′:1,6]pyrido[3,4-b]indol-2(3H,5H,6H)-yl)propanoic acid]	> 6.30
O=C(O)CCN1C(=O)C2Cc3c(n(Cc4ccc(F)cc4)c4ncccc34)CN2C1=O (single isomer, unassigned; enta) [C114 entA, 3-{8-[(4-fluorophenyl)methyl]-12,14-dioxo-6.8.11.13-tetraazatetracyclo[7.7.0.02, 7.011,15]hexadeca-1(9),2(7),3,5-tetraen-13-yl}propionic acid]	> 6.30
COc1ccc(Cn2c3c(c4ccccc42)C[C@H]2C(=O)N(CCCC(=O)O)C(=O)N2C3)cn1 [Compound 1-11, (S)-4-(6-((6-methoxypyridin-3-yl)methyl)-1,3-dioxo-11,11a-dihydro-1H-imidazo[1′,5′:1,6]pyrido[3,4-b]indol-2(3H,5H,6H)-yl)butanoic acid]	> 6.30
O=C(O)CCN1C(=O)[C@@H]2Cc3c(n(Cc4ccc(Cl)cc4Cl)c4ccccc34)CN2C1=O [Compound 1-132, (S)-3-(6-(2,4-dichlorobenzyl)-1,3-dioxo-11,11a-dihydro-1H-imidazo[1′,5′:1,6]pyrido[3,4-b]indol-2(3H,5H,6H)-yl)propanoic acid]	> 6.30
O=C(O)CCN1C(=O)[C@@H]2Cc3c(n(Cc4cnc(C(F)(F)F)s4)c4ccccc34)CN2C1=O [Compound 1-102, (S)-3-(1,3-dioxo-6-((2-(trifluoromethyl)thiazol-5-yl)methyl)-11,11a-dihydro-1H-imidazo[1′,5′:1,6]pyrido[3,4-b]indol-2(3H,5H,6H)-yl)propanoic acid]	> 6.30
O=C(O)CCCN1C(=O)C2Cc3c(n(CCCc4ccccc4)c4ccccc34)CN2C1=O (racemic) [Compound 1-7, 4-(1,3-dioxo-6-(3-phenylpropyl)-11,11a-dihydro-1H-imidazo[1′,5′:1,6]pyrido[3,4-b]indol-2(3H,5H,6H)-yl)butanoic acid]	> 6.30
O=C(O)CCN1C(=O)C2Cc3c(n(Cc4ccc(F)cc4)c4ncccc34)CN2C1=O (single isomer, unassigned; entb) [C114 entB, 3-{8-[(4-fluorophenyl)methyl]-12,14-dioxo-6.8.11.13-tetraazatetracyclo[7.7.0.02, 7.011,15]hexadeca-1(9),2(7),3,5-tetraen-13-yl}propionic acid]	> 6.30
O=C1NC(=O)N2Cc3c(c4ccc(Cl)cc4n3Cc3ccc(F)cc3)C[C@@H]12 [Compound 1-26, (S)-8-chloro-6-(4-fluorobenzyl)-5,6,11,11a-tetrahydro-1H-imidazo[1′,5′:1,6]pyrido[3,4-b]indole-1,3(2H)-dione]	< 6.00
CC12Cc3c(n(Cc4ccc(F)cc4)c4ccccc34)CN1C(=O)N(CCC(=O)O)C2=O (stereo not shown) [Compound A113, 3-(6-(4-fluorobenzyl)-11a-methyl-1,3-dioxo-11,11a-dihydro-1H-imidazo[1′,5′:1,6]pyrido[3,4-b]indol-2(3H,5H,6H)-yl)propanoic acid]	< 6.00

Next, values leading:

pIC50	SMILES
> 6.30	O=C(O)CCCN1C(=O)[C@H]2Cc3c(n(Cc4ccc(F)cc4)c4ccccc34)CN2C1=O [Compound 1-3, (R)-4-(6-(4-fluorobenzyl)-1,3-dioxo-11,11a-dihydro-1H-imidazo[1′,5′:1,6]pyrido[3,4-b]indol-2(3H,5H,6H)-yl)butanoic acid]
> 6.30	O=C1[C@@H]2Cc3c(n(Cc4ccc(F)cc4)c4ccccc34)CN2C(=O)N1CC1(C(=O)O)CC1 [Compound 1-34, (S)-1-((6-(4-fluorobenzyl)-1,3-dioxo-5,6,11,11a-tetrahydro-1H-imidazo[1′,5′:1,6]pyrido[3,4-b]indol-2(3H)-yl)methyl)cyclopropane-1-carboxylic acid]
> 6.30	O=C1NC(=O)N2Cc3c(c4ccccc4n3Cc3ccc(F)cc3)C[C@@H]12 [Compound 1-130, (S)-6-(4-fluorobenzyl)-5,6,11,11a-tetrahydro-1H-imidazo[1′,5′:1,6]pyrido[3,4-b]indole-1,3(2H)-dione]
> 6.30	O=C(O)CN1CC(=O)N2Cc3c(c4ccccc4n3Cc3ccc(F)cc3)CC2C1=O (racemic) [Compound 1-23, 2-(7-(4-fluorobenzyl)-1,4-dioxo-3,4,6,7,12,12a-hexahydropyrazino[1′,2′:1,6]pyrido[3,4-b]indol-2(1H)-yl)acetic acid]
> 6.30	O=C(CCN1C(=O)[C@@H]2Cc3c(n(Cc4ccc(F)cc4)c4ccccc34)CN2C1=O)NS(=O)(=O)c1ccccc1 [Compound 1-143, (S)-3-(6-(4-fluorobenzyl)-1,3-dioxo-11,11a-dihydro-1H-imidazo[1′,5′:1,6]pyrido[3,4-b]indol-2(3H,5H,6H)-yl)-N-(phenylsulfonyl)propanamide]
< 6.00	O=C1OC[C@H]2Cc3c(n(Cc4ccc(F)cc4)c4ccccc34)CN12 [Compound 1-10, (R)-6-(4-fluorobenzyl)-5,6,11,11a-tetrahydrooxazolo[3′,4′:1,6]pyrido[3,4-b]indol-3(1H)-one]
> 6.30	CS(=O)(=O)NC(=O)CCN1C(=O)[C@@H]2Cc3c(n(Cc4ccc(F)cc4)c4ccccc34)CN2C1=O [Compound 1-142, (S)-3-(6-(4-fluorobenzyl)-1,3-dioxo-11,11a-dihydro-1H-imidazo[1′,5′:1,6]pyrido[3,4-b]indol-2(3H,5H,6H)-yl)-N-(methylsulfonyl)propanamide]
< 6.00	O=C(O)CCN1C(=O)N2Cc3c(c4ccccc4n3Cc3ccc(F)cc3)C[C@H]2C1=S [Compound 1-141, (S)-3(6-(4-fluorobenzyl)-3-oxo-1-thioxo-5,6,11,11a-tetrahydro-1H-imidazo[1′,5′:1,6]pyrido[3,4-b]indol-2(3H)-yl)propanoic acid]
> 6.30	O=C(O)CCCN1C(=O)[C@@H]2Cc3c(n(Cc4ccc(F)cc4)c4ccccc34)CN2C1=O [Compound 1-2, (S)-4-(6-(4-fluorobenzyl)-1,3-dioxo-11,11a-dihydro-1H-imidazo[1′,5′:1,6]pyrido[3,4-b]indol-2(3H,5H,6H)-yl)butanoic acid]
> 6.30	N#CCN1C(=O)C2Cc3c(n(Cc4ccc(F)cc4)c4ccccc34)CN2C1=O (racemic) [Compound 1-139, 2-(6-(4-fluorobenzyl)-1,3-dioxo-5,6,11,11a-tetrahydro-1H-imidazo[1′,5′:1,6]pyrido[3,4-b]indol-2(3H)-yl)acetonitrile]
> 6.30	O=C1NCC(=O)N2Cc3c(c4ccccc4n3Cc3ccc(F)cc3)CC12 (racemic) [Compound 1-16, 7-(4-fluorobenzyl)-2,3,6,7,12,12a-hexahydropyrazino[1′,2′:1,6]pyrido[3,4-b]indole-1,4-dione]
> 6.30	CC(C)(CC(=O)O)CN1C(=O)[C@@H]2Cc3c(n(Cc4ccc(F)cc4)c4ccccc34)CN2C1=O [Compound 1-42, (S)-4-(6-(4-fluorobenzyl)-1,3-dioxo-5,6,11,11a-tetrahydro-1H-imidazo[1′,5′:1,6]pyrido[3,4-b]indol-2(3H)-yl)-3,3-dimethylbutanoic acid]
> 6.30	CC(C)(CCN1C(=O)[C@@H]2Cc3c(n(Cc4ccc(F)cc4)c4ccccc34)CN2C1=O)C(=O)O [Compound 1-39, (S)-4-(6-(4-fluorobenzyl)-1,3-dioxo-5,6,11,11a-tetrahydro-1H-imidazo[1′,5′:1,6]pyrido[3,4-b]indol-2(3H)-yl)-2,2-dimethylbutanoic acid]
< 6.00	O=C(O)CCCN1C(=O)[C@@H]2Cc3c(n(Cc4ccc(F)cc4)c4cc(Cl)ccc34)CN2C1=O [Compound 1-27, (S)-4-(8-chloro-6-(4-fluorobenzyl)-1,3-dioxo-5,6,11,11a-tetrahydro-1H-imidazo[1′,5′:1,6]pyrido[3,4-b]indol-2(3H)-yl)butanoic acid]
> 6.30	O=C1C2Cc3c(n(Cc4ccc(F)cc4)c4ccccc34)CN2C(=O)N1Cc1nn[nH]n1 (racemic) [Compound 1-140, 2-((2H-tetrazol-5-yl)methyl)-6-(4-fluorobenzyl)-5,6,11,11a-tetrahydro-1H-imidazo[1′,5′:1,6]pyrido[3,4-b]indole-1,3(2H)-dione]
